Measured values: ChEMBL document CHEMBL1137682, “Synthesis, characterization and structure-activity relationship analysis of novel depsides as potential antibacterials” (2009)
In brackets after ≈: the same amount, converted by molar mass.

Legend:
Format in all cases: functional
Enterobacter cloacae = experiment: Antibacterial activity against Enterobacter cloacae ATCC 13047 after 24 hrs by MTT assay; details: ATCC 13047, 24 h
Pseudomonas aeruginosa = experiment: Antibacterial activity against sPseudomonas aeruginosa ATCC 13525 after 24 hrs by MTT assay; details: ATCC 13525, 24 h
Enterococcus faecalis = experiment: microbe, parasite or virus in culture; details: ATCC 9790, 24 h
Escherichia coli = experiment: Antibacterial activity against Escherichia coli ATCC 35218 after 24 hrs by MTT assay; details: ATCC 35218, 24 h
Staphylococcus aureus = experiment: Antibacterial activity against Staphylococcus aureus ATCC 6538 after 24 hrs by MTT assay; details: ATCC 6538, 24 h
Bacillus subtilis = experiment: Antibacterial activity against Bacillus subtilis ATCC 6633 after 24 hrs by MTT assay; details: ATCC 6633, 24 h

SMILES	MIC (Enterobacter cloacae) [µg/mL]	MIC (Pseudomonas aeruginosa) [µg/mL]	MIC (Enterococcus faecalis) [µg/mL]	MIC (Escherichia coli) [µg/mL]	MIC (Staphylococcus aureus) [µg/mL]	MIC (Bacillus subtilis) [µg/mL]
CCOC(=O)Cc1ccccc1OC(=O)Cc1ccc(Cl)cc1	6.25 (≈ 18.8 µM)	25 (≈ 75.1 µM)	12.5 (≈ 37.6 µM)	> 50	6.25 (≈ 18.8 µM)	6.25 (≈ 18.8 µM)
COC(=O)Cc1ccccc1OC(=O)c1ccc(C)cc1	6.25 (≈ 22 µM)	12.5 (≈ 44 µM)	> 50	3.12 (≈ 11 µM)	25 (≈ 87.9 µM)	12.5 (≈ 44 µM)
CCOC(=O)Cc1ccccc1OC(=O)c1cccc([N+](=O)[O-])c1	6.25 (≈ 19 µM)	6.25 (≈ 19 µM)	1.56 (≈ 4.74 µM)	3.12 (≈ 9.49 µM)	3.12 (≈ 9.49 µM)	0.78 (≈ 2.37 µM)
CCOC(=O)Cc1ccccc1OC(=O)c1ccc(Cl)cc1	> 50	> 50	25 (≈ 78.4 µM)	> 50	> 50	25 (≈ 78.4 µM)
COC(=O)Cc1ccccc1OC(=O)Cc1cccc(Br)c1	> 50	25 (≈ 68.8 µM)	25 (≈ 68.8 µM)	6.25 (≈ 17.2 µM)	> 50	1.56 (≈ 4.3 µM)
COC(=O)Cc1ccccc1OC(=O)Cc1cccc(OC)c1	> 50	6.25 (≈ 19.9 µM)	> 50	> 50	25 (≈ 79.5 µM)	> 50
COC(=O)Cc1ccccc1OC(=O)c1cc(OC)cc(OC)c1	> 50	6.25 (≈ 18.9 µM)	> 50	25 (≈ 75.7 µM)	> 50	> 50
COC(=O)Cc1ccccc1OC(=O)Cc1ccc(F)cc1	6.25 (≈ 20.7 µM)	25 (≈ 82.7 µM)	12.5 (≈ 41.3 µM)	25 (≈ 82.7 µM)	12.5 (≈ 41.3 µM)	6.25 (≈ 20.7 µM)
COC(=O)c1ccc(O)cc1 [METHYLPARABEN]	25 (≈ 164 µM)	6.25 (≈ 41.1 µM)	12.5 (≈ 82.2 µM)	6.25 (≈ 41.1 µM)	6.25 (≈ 41.1 µM)	6.25 (≈ 41.1 µM)
NC[C@H]1O[C@H](O[C@H]2[C@H](O)[C@@H](O[C@H]3O[C@H](CO)[C@@H](O)[C@H](N)[C@H]3O)[C@H](N)C[C@@H]2N)[C@H](N)[C@@H](O)[C@@H]1O [BEKANAMYCIN]	1.56 (≈ 3.23 µM)	3.12 (≈ 6.46 µM)	3.12 (≈ 6.46 µM)	3.12 (≈ 6.46 µM)	1.56 (≈ 3.23 µM)	0.39 (≈ 0.807 µM)
COC(=O)Cc1ccccc1OC(=O)Cc1cccc(Cl)c1	25 (≈ 78.4 µM)	12.5 (≈ 39.2 µM)	12.5 (≈ 39.2 µM)	> 50	3.12 (≈ 9.8 µM)	3.12 (≈ 9.8 µM)
COC(=O)Cc1ccccc1OC(=O)Cc1ccc(Br)cc1	3.12 (≈ 8.6 µM)	25 (≈ 68.8 µM)	6.25 (≈ 17.2 µM)	> 50	6.25 (≈ 17.2 µM)	6.25 (≈ 17.2 µM)
CCOC(=O)Cc1ccccc1OC(=O)Cc1ccc(Br)cc1	3.12 (≈ 8.28 µM)	25 (≈ 66.3 µM)	> 50	> 50	12.5 (≈ 33.1 µM)	12.5 (≈ 33.1 µM)
COC(=O)Cc1ccccc1OC(=O)c1ccccc1Cl	> 50	> 50	25 (≈ 82 µM)	25 (≈ 82 µM)	3.12 (≈ 10.3 µM)	> 50
CCOC(=O)Cc1ccccc1OC(=O)c1ccccc1Cl	> 50	25 (≈ 78.4 µM)	> 50	6.25 (≈ 19.6 µM)	6.25 (≈ 19.6 µM)	> 50
CN[C@H](CC(C)C)C(=O)N[C@H]1C(=O)N[C@@H](CC(N)=O)C(=O)N[C@H]2C(=O)N[C@H]3C(=O)N[C@H](C(=O)N[C@H](C(=O)O)c4cc(O)cc(O)c4-c4cc3ccc4O)[C@H](O)c3ccc(c(Cl)c3)Oc3cc2cc(c3O[C@@H]2O[C@H](CO)[C@@H](O)[C@H](O)[C@H]2O[C@H]2C[C@](C)(N)[C@H](O)[C@H](C)O2)Oc2ccc(cc2Cl)[C@H]1O.Cl [VANCOMYCIN HYDROCHLORIDE]	> 50	> 50	1.56	> 50	0.78	0.39
